Experimental data: patent publication US6194450A, “Polyaromatic heterocyclic compounds and pharmaceutical compositions comprised thereof” (Centre International de Recherches Dermatologiques Galderma, priority 1995, dated 2001)

Tests used:
[1] = test system: mouse embryonic teratocarcinoma F9 cells; test: Differentiation of mouse embryonic teratocarcinoma F9 cells (plasminogen activator secretion); type: cell-based; details: concentration producing half of the maximum amount of plasminogen activator secreted
Text: Their activities may also be measured in tests of cell transactivation using pretransfected recombinant RAR or RXR receptors (B. A. Bernard et al, Biochemical and Biophysical Research Communication, vol. 186, 977-983 (1992); M. F. Boehm et al, Journal of Medicinal Chemistry, 37, 408-414 (1994)).
This differentiation was characterized by the secretion of the plasminogen activator into the culture medium. The activity of the compound is expressed by the AC50 value, which represents the concentration of test compound which produces half of the maximum amount of plasminogen activator secreted.

[2] = biological target: T1, RARα (Homo sapiens, UniProt P10276); test: RAR Transactivation, RARα (HeLa cells cotransfected with human RAR expression vector and TREpp-tk-CAT reporter); type: cell-based; details: concentration eliciting 50% of the maximum CAT activity
T1 construct: expressed in transfected cells
T1 sequence (P10276 1-462): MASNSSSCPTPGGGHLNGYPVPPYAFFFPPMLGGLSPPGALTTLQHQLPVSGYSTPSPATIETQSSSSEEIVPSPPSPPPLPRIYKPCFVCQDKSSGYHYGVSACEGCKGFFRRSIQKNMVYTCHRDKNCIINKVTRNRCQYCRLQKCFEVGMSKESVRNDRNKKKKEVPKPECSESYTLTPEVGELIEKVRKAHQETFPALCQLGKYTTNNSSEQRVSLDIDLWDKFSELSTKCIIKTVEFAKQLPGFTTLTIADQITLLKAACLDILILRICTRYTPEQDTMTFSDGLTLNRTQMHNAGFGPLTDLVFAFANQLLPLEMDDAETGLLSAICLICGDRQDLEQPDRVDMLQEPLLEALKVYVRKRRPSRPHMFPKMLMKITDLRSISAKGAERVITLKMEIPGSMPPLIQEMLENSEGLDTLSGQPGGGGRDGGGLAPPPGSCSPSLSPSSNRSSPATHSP
Procedure: (§1) (b) This test was carried out as described in the publication: Bernard B. A., Bernardon J. M., Delescluse C., Martin C., Lenoir M. C., Maignan J., Carpentier B., Pilgrim W. R., Reichert U. and Shroot B., Biochem. Biophys. […] HeLa cells were cotransfected with expression vectors coding for human RARs and the reporter plasmid TREpp-tk-CAT. The value given represents the concentration of test compound which elicited 50% of the maximum CAT activity.

[3] = biological target: T2, RARγ (Homo sapiens, UniProt P13631); test: RAR Transactivation, RARγ (HeLa cells cotransfected with human RAR expression vector and TREpp-tk-CAT reporter); type: cell-based; details: concentration eliciting 50% of the maximum CAT activity
T2 construct: expressed in transfected cells; host or cells: HeLa
T2 sequence (P13631 1-454): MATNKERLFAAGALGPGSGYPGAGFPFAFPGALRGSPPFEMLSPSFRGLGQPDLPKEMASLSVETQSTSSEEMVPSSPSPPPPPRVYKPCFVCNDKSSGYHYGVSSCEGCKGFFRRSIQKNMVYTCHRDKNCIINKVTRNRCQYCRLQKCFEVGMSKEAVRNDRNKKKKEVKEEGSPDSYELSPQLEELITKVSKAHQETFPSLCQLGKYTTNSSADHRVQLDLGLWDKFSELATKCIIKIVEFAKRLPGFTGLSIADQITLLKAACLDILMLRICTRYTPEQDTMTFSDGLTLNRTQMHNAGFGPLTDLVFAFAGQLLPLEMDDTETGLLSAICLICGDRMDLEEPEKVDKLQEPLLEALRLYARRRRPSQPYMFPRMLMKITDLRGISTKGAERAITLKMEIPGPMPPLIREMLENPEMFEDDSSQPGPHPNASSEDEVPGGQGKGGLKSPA
Procedure: as §1

[4] = biological target: T3, RARβ (Homo sapiens, UniProt P10826); test: RAR Transactivation, RARβ (HeLa cells cotransfected with human RAR expression vector and TREpp-tk-CAT reporter); type: cell-based; design: expressed in transfected cells; details: concentration eliciting 50% of the maximum CAT activity
T3 sequence (P10826 1-448 isoform P10826-2): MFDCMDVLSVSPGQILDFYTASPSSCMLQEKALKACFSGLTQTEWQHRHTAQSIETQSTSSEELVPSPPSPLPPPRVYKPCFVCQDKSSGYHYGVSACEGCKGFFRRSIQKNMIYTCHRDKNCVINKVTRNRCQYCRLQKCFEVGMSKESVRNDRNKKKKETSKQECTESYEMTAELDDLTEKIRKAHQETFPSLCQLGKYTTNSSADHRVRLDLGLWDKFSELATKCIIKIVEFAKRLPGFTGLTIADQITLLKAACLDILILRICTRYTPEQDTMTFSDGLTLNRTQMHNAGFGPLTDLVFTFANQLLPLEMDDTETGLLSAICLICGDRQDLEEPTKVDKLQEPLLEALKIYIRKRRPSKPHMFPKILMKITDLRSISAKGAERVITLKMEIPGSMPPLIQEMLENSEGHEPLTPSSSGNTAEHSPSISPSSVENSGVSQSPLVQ
Procedure: as §1

[5] = biological target: T3, RARβ; test: RAR binding, RARβ (competition binding, nuclear extracts of transfected cos-7 cells); design: expressed in transfected cells; host or cells: COS-7 (nuclear extracts); details: recombinant human receptors, cos-7 nuclear extracts; competition with [H^3]-4-(5,6,7,8-tetrahydro-5,5,8,8-tetramethyl-2-anthracenyl benzoic acid)
Procedure: (c) The binding test was carried out on recombinant human receptors produced by the transfection of cos-7 cells with expression vectors coding for the RAR receptor subtypes.

| Structure (SMILES) | AC50 [1] [nM] | AC50 [2] [nM] | AC50 [3] [nM] | AC50 [4] [nM] | Kd [5] [nM] |
| --- | --- | --- | --- | --- | --- |
| CC1(C)CCC(C)(C)c2cc(C3=Cc4ccc(C(=O)O)cc4OC3)ccc21 [Example 2, 3-[(5,6,7,8-tetrahydro-5,5,8,8-tetramethyl-2-naphthyl)-2-H-1-benzopyran]-7-carboxylic acid] | 58 | 22 | 15 | 2 | – |
| CC(C)(C)c1cc(C2=Cc3ccc(C(=O)O)cc3OC2)cc(C(C)(C)C)c1O [Example 11, 3-[(3,5-di-tert-butyl-4-hydroxyphenyl)-2-H-1-benzopyran]-7-carboxylic acid] | 320 | – | 157 | 77 | 3680 |
| COc1ccc(C2=Cc3ccc(C(=O)O)cc3OC2)cc1C12CC3CC(CC(C3)C1)C2 [Example 1, 3-[(3-(1-adamantyl)-4-methoxyphenyl)-2H-1-benzopyran]-7-carboxylic acid] | – | 8 | 4 | 2 | – |
| O=C(O)c1ccc2c(c1)OCC(c1ccc(O)c(C34CC5CC(CC(C5)C3)C4)c1)=C2 [Example 13, 3-[(3-(1-adamantyl)-4-hydroxphenyl)-2H-1-benzopyran]-7-carboxylic acid] | 107 | 47 | 6 | 20 | 3300 |
